Assays:
Format in all cases: cell-based
KRAS4B G12C = biological target: T1, KRAS4B G12C (Homo sapiens, UniProt P01116, G12C); test: HiBit KRAS4B mutant spectrum degradation assay, KRAS4B G12C in GP5d cells (18 h); settings: KRAS mutation G12C
T1 construct: HiBit; expressed in transfected cells; host or cells: GP5d cells (ECACC 95090715), stably transduced with lentivirus, CMV promoter
From the text: The therapeutically relevant mutant KRAS constructs (WT, G12C, G12D, G12V, G13D) were obtained by site directed mutagenesis using a KRAS4B WT cDNA construct as a template. GP5d cells (ECACC Cat. No. 95090715) were transduced with lentiviral vectors expressing mutant KRAS4B cDNA under control of a CMV promoter. Stably transduced cells were selected using a neomycin selectable marker encoded on the construct.
To assess PROTAC-mediated degradation of various KRAS mutants, GP5d cells stably transduced with KRAS4B constructs as described above were seeded at 25000 cells per well in 100 μL Dulbecco's Modified Eagle medium (Sigma cat. no. D6429) supplemented with 10% fetal calf serum into white bottom opaque 96 well plates (Perkin Elmer cat no. 5680). Plates were incubated at 37° C., 5% CO2 in a humidified incubator over night to allow the cells to adhere. […] Plates were further incubated at 37° C. for 18 hours. Following incubation, 100 μL per well Promega Nano-Glo HiBit lytic detection reagent mix (Promega Nano-Glo HiBit Lytic Detection System #N3050), prepared according to the manufacturer's instructions in the kit, were added. To allow for adequate cell lysis, plates were incubated on an orbital shaker for 15 min and further incubated 30 min at room temperature. Upon completion of cell lysis, luminescence was measured using an Envision plate reader using the Ultrasensitive Luminescence Protocol for 96 well plates. Luminescence levels were normalized by the values obtained with DMSO-treated samples and plotted as percent of DMSO control. DC50 values were computed using a four parametric logistic model and are reported in nM in Table 65 for representative example (Ex.) compounds of the invention. Dmax values represent the maximal extent of degradation observed and is stated as percent of control (% Ctrl.) treatments in Table 66 for representative example (Ex.) compounds of the invention.

A375 cells = test: A375 CTG proliferation assay (120 h) (melanoma, wt, B-Raf mutant, negative control); settings: Homo sapiens, A-375, negative control cell line
Description: A375 CTG Proliferation Assay (120 h) (Melanoma, Wt, B-Raf Mutant, Negative Control)
A375 cells (ATCC CRL-1619) are dispensed into 384-well plates, flat and clear bottom (Greiner, PNr. 781091) at a density of 300 cells per well in 60 μL DMEM (Sigma D6429)+10% Fetal Calf Serum (HyClone, PNr.: SH30084.03) and incubated at 37° C. in a CO2 incubator overnight. The next day, compounds (10 mM stock in DMSO) are added at logarithmic dose series using the HP Digital Dispenser D300 (Tecan), including DMSO controls. Plates are incubated for 120 h, and cell viability is measured using CellTiter-Glo luminescent cell viability reagent (Promega product code G7570). Viability (stated as percent of control) is defined as relative luminescence units RLU of each well divided by the RLU of cells in DMSO controls. IC50 values are determined from viability measurements by non-linear regression using a four-parameter model.

GP5d cells = test: GP5d cell proliferation assay (colorectal cancer, G12D), 5 days; settings: Homo sapiens, 120 h
Summary of the method: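 Cells in DMEM + 10% FCS received logarithmic compound dilutions (DMSO-normalized) and were grown for 5 days. Viability read by CellTiter-Glo luminescence as percent of DMSO controls, with a T0 reading at compound addition; IC50 from a four-parameter logistic fit.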

T1 sequence (P01116 1-188 isoform P01116-2 G12C): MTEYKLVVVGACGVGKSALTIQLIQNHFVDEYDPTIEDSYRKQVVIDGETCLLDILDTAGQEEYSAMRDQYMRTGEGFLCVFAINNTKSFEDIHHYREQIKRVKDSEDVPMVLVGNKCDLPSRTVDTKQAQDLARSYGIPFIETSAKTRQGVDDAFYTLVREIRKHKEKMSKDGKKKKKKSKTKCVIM

Structure (SMILES)	DC50 (KRAS4B G12C) [nM]	Dmax at 18 h (KRAS4B G12C) [% Ctrl.]	IC50 (A375 cells) [nM]	IC50 (GP5d cells) [nM]
Cc1ncsc1-c1ccc([C@@H](NC(=O)[C@@H]2C[C@@H](O)CN2C(=O)[C@H](C(C)C)n2cc(OCCCN3CCCN(c4nccc(-c5noc([C@@]6(C)CCCc7sc(N)c(C#N)c76)n5)n4)[C@@H](C)C3)nn2)[C@H](O)C(C)C)cc1 (single isomer, unassigned) [I-43]	1.1	95.6	≥ 3000	
Cc1ncsc1-c1ccc(CNC(=O)[C@@H]2C[C@@H](O)CN2C(=O)[C@H](c2cc(OCCCN3CCCN(c4nccc(-c5noc([C@@]6(C)CCCc7sc(N)c(C#N)c76)n5)n4)[C@@H](C)C3)no2)C(C)C)cc1 (single isomer, unassigned) [I-24]				766
CC(C)C(C(=O)N1C[C@H](O)C[C@H]1C(=O)NCc1ccc(C#N)cc1)c1cc(OCCCCN2CCCN(c3nccc(-c4noc([C@@]5(C)CCCc6sc(N)c(C#N)c65)n4)n3)[C@@H](C)C2)no1 (stereo partly shown) [I-16]			≥ 3000	
Cc1ncsc1-c1ccc([C@@H](NC(=O)[C@@H]2C[C@@H](O)CN2C(=O)[C@H](C(C)C)n2cc(OCCCCN3CCCN(c4nccc(-c5noc([C@@]6(C)CCCc7sc(N)c(C#N)c76)n5)n4)[C@@H](C)C3)nn2)[C@H](C)O)cc1 (single isomer, unassigned) [I-41]	1.2	96.2	≥ 3000	
Cc1ncsc1-c1ccc([C@H](CO)NC(=O)[C@@H]2C[C@@H](O)CN2C(=O)[C@H](C(C)C)n2cc(OC(C)CCCN3CCCN(c4nccc(-c5noc([C@@]6(C)CCCc7sc(N)c(C#N)c76)n5)n4)[C@@H](C)C3)nn2)cc1 (stereo partly shown) [I-31]	3.6	94.7	≥ 3000	
Cc1ncsc1-c1ccc(CNC(=O)[C@@H]2C[C@@H](O)CN2C(=O)C(c2cc(OCCCCN3CCCN(c4nccc(-c5cc([C@@]6(C)CCCc7sc(N)c(C#N)c76)on5)n4)[C@@H](C)C3)no2)C(C)C)cc1 (stereo partly shown) [I-4]				36.1
Cc1ncsc1-c1ccc([C@H](C)NC(=O)[C@@H]2C[C@@H](O)CN2C(=O)C(C(C)C)n2cc(OCCCCN3CCCN(c4nccc(-c5noc([C@@]6(C)CCCc7sc(N)c(C#N)c76)n5)n4)[C@@H](C)C3)nn2)cc1 (stereo partly shown) [I-28]			1090	
Cc1ncsc1-c1ccc(CNC(=O)[C@@H]2C[C@@H](O)CN2C(=O)[C@@H](c2cc(OCCCN3CCCN(c4nccc(-c5noc([C@@]6(C)CCCc7sc(N)c(C#N)c76)n5)n4)[C@@H](C)C3)no2)C(C)C)cc1 (single isomer, unassigned) [I-25]	1.9	92.5		3.97
Cc1ncsc1-c1ccc([C@H](CO)NC(=O)[C@@H]2C[C@@H](O)CN2C(=O)[C@H](C(C)C)n2cc(OCCCCN3CCCN(c4nccc(-c5noc([C@@]6(C)CCCc7sc(N)c(C#N)c76)n5)n4)[C@@H](C)C3)nn2)cc1 [I-29]	1.4	95.6	≥ 3000	
Cc1ncsc1-c1ccc([C@H](CCO)NC(=O)[C@@H]2C[C@@H](O)CN2C(=O)[C@H](C(C)C)n2cc(OCCCCN3CCCN(c4nccc(-c5noc([C@@]6(C)CCCc7sc(N)c(C#N)c76)n5)n4)[C@@H](C)C3)nn2)cc1 [I-38]			≥ 3000	
Cc1ncsc1-c1ccc(CNC(=O)[C@@H]2C[C@@H](O)CN2C(=O)[C@@H](c2cc(OCCCCN3CCCN(c4nccc(-c5noc([C@@]6(C)CCCc7sc(N)c(C#N)c76)n5)n4)[C@@H](C)C3)no2)C(C)C)cc1 (single isomer, unassigned) [I-27]	3.7	83	≥ 3000	4
Cc1ncsc1-c1ccc([C@H](CO)NC(=O)[C@@H]2C[C@@H](O)CN2C(=O)[C@H](C(C)C)n2cc(OCCCC(C)N3CCCN(c4nccc(-c5noc([C@@]6(C)CCCc7sc(N)c(C#N)c76)n5)n4)[C@@H](C)C3)nn2)cc1 (stereo partly shown) [I-30]	1.2	95.6	≥ 3000	
Cc1ncsc1-c1ccc([C@@H](NC(=O)[C@@H]2C[C@@H](O)CN2C(=O)[C@H](C(C)C)n2cc(OCCCCN3CCCN(c4nccc(-c5noc([C@@]6(C)CCCc7sc(N)c(C#N)c76)n5)n4)[C@@H](C)C3)nn2)[C@H](O)C(C)C)cc1 (single isomer, unassigned) [I-45]			≥ 3000	

From US20250145608A1, “KRAS DEGRADING COMPOUNDS COMPRISING ANNULATED 2-AMINO-3-CYANO THIOPHENES” (Boehringer Ingelheim Int'l GmbH Corp., priority 2021, published 2025)
